Experimental data published in US7700584B2 (Hangzhou Minsheng Pharmaceuticals Co., Ltd., priority 2004, dated 2010).
Values after ≈ are worked out from the molar mass of the structure shown. Counter-ions that a name gives are not always drawn. Like-named read-outs stand apart in the source and are kept apart here.

Legend:
[1] = tested on: LLC mouse Lewis lung carcinoma; test: In vitro anti-tumor IC50 (MTT), LLC; type: cell-based; settings: Mus musculus, Lewis lung carcinoma, Table 4; read-out: IC50 (ug/ml) against tumor cell lines, LLC
Method: (§1) (1) Single cell suspension was seeded into 96-well plates (the cells was diluted in the PRMI-1640 minimum medium to 3×10^4 cells/ml, […] diluted cells/well). […] The experiments were performed in quadruplicate.
(§2) (2) The medium was removed. Solutions of the anti-tumor agents (50 compounds) were prepared in a freshly prepared medium at serial concentrations. […] of the solution was added into each well. Incubation was continued for 48 hours.
(§3) (3) 20 ug of 2 mg/ml MTT was added into each well, and incubated for 4 hours.
(§4) (4) The medium was removed from the well. The microplates were swiftly turned down to throw-off the medium. […] of DMSO was added into each well, and vortexed at room temperature for 10 minutes.
(§5) (5) OD value (λ=570 nm) was measured with an Enzyme-Linked Detector.
(§6) (6) The graph of cell vitality was plotted, and IC50 was calculated.

[2] = tested on: A-549 human lung adenocarcinoma; test: In vitro anti-tumor IC50 (MTT), A-549; type: cell-based; settings: Homo sapiens, A549, Table 4; read-out: IC50 (ug/ml) against tumor cell lines, A-549
Method: as §1, §2, §3, §4, §5, §6

[3] = tested on: Bel-7402 human hepatic carcinoma; test: In vitro anti-tumor IC50 (MTT), Bel-7402; type: cell-based; settings: Homo sapiens, Bel-7402, Table 4; read-out: IC50 (ug/ml) against tumor cell lines, Bel-7402
Method: as §1, §2, §3, §4, §5, §6

[4] = tested on: SMMC-7721 human hepatic carcinoma; test: In vitro anti-tumor IC50 (MTT), SMMC-7721; type: cell-based; settings: Homo sapiens, SMMC-7721, Table 4; read-out: IC50 (ug/ml) against tumor cell lines, SMMC-7721
Method: as §1, §2, §3, §4, §5, §6

[5] = tested on: HepG2 cells; test: Cell status of HepG2 cells treated with sample (HBV screening); type: cell-based; settings: 200 μg/ml, HepG2, four days after infection
[6] = tested on: mouse grafted uterine cervix cancer U14; test: Activity against mouse grafted uterine cervix cancer U14; type: in vivo, Kunming mice; settings: for Tumor weight: X ± SD, n = 10; for inhibitory effect against mouse grafted uterine cervix cancer U14 (in words): all the three concentrations, i.v., female mice
Method: (§7) The experiments were performed according to “Guideline for New Drugs (Western medicines) in Pre-clinical Stages” issued by Bureau of Drug Policy & Administration of the People's Republic of China, and the relevant methods in “Methodology of Pharmaceutical Experiments”, Xu Shuyun et al. ed. 120 male Kunming mice weighting […] were allowed to grow 3 days. No abnormality was observed. The mice were routinely inoculated in oxter with mouse sarcoma S-180, and weighted 4 hrs. after inoculation. The mice were randomly divided into 12 groups, 10 mice/group. Group 1 was given 0.3 ml of physiological saline as negative control; Group 2 was given 5-FU as positive control, 0.6 mg/mouse; Group 3 was given hydroxycamptothecine as positive control, 0.02 mg/mouse. Groups 4, 5 and 6 were injected with 10% Compound 6, 0.4 ml/mouse, 0.2 ml/mouse, and 0.1 ml/mouse, respectively. Groups 7, 8 and 9 were injected with 10% Compound 8, 0.4 ml/mouse, 0.2 ml/mouse, and 0.1 ml/mouse, respectively. Groups 10, 11, and 12 were injected with 10% Compound 20, 0.4 ml/mouse, 0.2 ml/mouse, and 0.1 ml/mouse, respectively. The tested compounds were administered on the next day after inoculation, once a day on alternate days, 6 doses totally administered. On the next day after the end dose, the mice were weighed and sacrificed. After the tumor was excised, body weight and tumor weight were recorded. The tumor inhibition rate was calculated based on the following formula: [(average tumor weight of the control groups−average tumor weight of the experimental groups)/average tumor weight of the control groups]×100%. The data was processed statistically. The above experiments were repeated three times.
The experiments were identical with the experiments for activity against mouse grafted sarcoma S-180, except the following:
(1) the tumor cell line inoculated was mouse grafted uterine cervix cancer U14;
(2) all the mice were female.

[7] = Solubility in water (observation); type: physicochemical
[8] = tested on: oral membrane herpes virus (VSV); type: cell-based
[9] = tested on: mouse grafted liver cancer H22; test: Activity against mouse grafted liver cancer H22; type: in vivo, Kunming mice; settings: for Tumor weight: X ± SD, n = 10; for inhibitory effect against mouse grafted liver cancer H22 (in words): three different concentrations (40, 20, 10 mg/kg), i.v.
Method: as §7
The experiments were identical with the experiments for activity against mouse grafted sarcoma S-180, except that the cell line inoculated was liver cancer H22. The experiments were repeated three times.

[10] = tested on: influenza A virus (Jifang 90-15); test: microbe, parasite or virus in culture; type: cell-based
[11] = U14, first experiment, 10 mg/kg
[12] = U14, first experiment, 20 mg/kg
[13] = U14, first experiment, 40 mg/kg
[14] = U14, second experiment, 10 mg/kg
[15] = U14, second experiment, 20 mg/kg
[16] = U14, second experiment, 40 mg/kg
[17] = U14, third experiment, 10 mg/kg
[18] = U14, third experiment, 20 mg/kg
[19] = U14, third experiment, 40 mg/kg
[20] = H22, first experiment, 10 mg/kg i.v., 6 doses
[21] = H22, first experiment, 20 mg/kg i.v., 6 doses
[22] = H22, first experiment, 40 mg/kg i.v., 6 doses
[23] = H22, second experiment, 10 mg/kg
[24] = H22, second experiment, 20 mg/kg
[25] = H22, second experiment, 40 mg/kg
[26] = H22, third experiment, 10 mg/kg
[27] = H22, third experiment, 20 mg/kg
[28] = H22, third experiment, 40 mg/kg

CC(C)C1CC23OC1(O)C/C(=C\Nc1ccc(O)cc1)C2CCC3C (stereo not shown) [Compound 5, Curcumol p-hydroxy aniline]
IC50 [1]: 3.6 µg/mL (≈ 10.5 µM)
IC50 [2]: 2 µg/mL (≈ 5.82 µM)
IC50 [3]: 0.9 µg/mL (≈ 2.62 µM)
IC50 [4]: 4.3 µg/mL (≈ 12.5 µM)

C=C1CC2(OC(=O)C(C)C)OC3(CC2C(C)C)C(C)CCC13 (stereo not shown) [Compound 3, Curcumol isobutyrate]
Cell status [5]: Normal

CC(C)C1CC23OC1(O)CC(=CBr)C2CCC3C (stereo not shown) [Compound 17, Curcumol monobromide]
Cell status [5]: Poor

C=C1CC2(OS(=O)(=O)O)OC3(CC2C(C)C)C(C)CCC13 (stereo not shown) [Compound 20, Curcumol sulfonate]
Cell status [5]: Normal

C=C1CC2(OS(=O)(=O)[O-])OC3(CC2C(C)C)C(C)CCC13.[Na+] (stereo not shown) [Compound 21, Curcumol sodium sulfonate]
Average weight(g)-after administration [6, 11]: 22.1 g
Inhibition rate (%) [6, 11]: 52.1%
Tumor weight [6, 11]: 1.68 ± 0.29 g
Average weight(g)-after administration [6, 12]: 21.0 g
Inhibition rate (%) [6, 12]: 56.7%
Tumor weight [6, 12]: 1.52 ± 0.41 g
Average weight(g)-after administration [6, 13]: 21.1 g
Inhibition rate (%) [6, 13]: 71.8%
Tumor weight [6, 13]: 0.99 ± 0.31 g
Average weight(g)-after administration [6, 14]: 22.5 g
Inhibition rate (%) [6, 14]: 53.2%
Tumor weight [6, 14]: 1.59 ± 0.29 g
Average weight(g)-after administration [6, 15]: 21.1 g
Inhibition rate (%) [6, 15]: 57.1%
Tumor weight [6, 15]: 1.46 ± 0.41 g
Average weight(g)-after administration [6, 16]: 21.0 g
Inhibition rate (%) [6, 16]: 73.8%
Tumor weight [6, 16]: 0.89 ± 0.31 g
Average weight (g)-after administration [6, 17]: 22.0 g
Inhibition rate (%) [6, 17]: 54.7%
Tumor weight [6, 17]: 1.64 ± 0.29 g
Average weight (g)-after administration [6, 18]: 21.0 g
Inhibition rate (%) [6, 18]: 58.3%
Tumor weight [6, 18]: 1.51 ± 0.41 g
Average weight (g)-after administration [6, 19]: 20.1 g
Inhibition rate (%) [6, 19]: 73.7%
Tumor weight [6, 19]: 0.95 ± 0.31 g
inhibitory effect against mouse grafted uterine cervix cancer U14 (in words) [6]: good inhibitory effect
solubility in water (in words) [7]: soluble in water
activity against VSV (in words) ([8]; 200 μg/ml): had the activity against VSV
activity against VSV (in words) ([8]; first round of the primary screening, 13 samples): some activities against VSV
Average weight(g)-after administration [9, 20]: 22.1 g
Tumor weight [9, 20]: 3.00 ± 0.29 g
Average weight(g)-after administration [9, 21]: 22.0 g
Tumor weight [9, 21]: 3.03 ± 0.41 g
Average weight(g)-after administration [9, 22]: 22.1 g
Inhibition rate (%) [9, 22]: 4.0%
Tumor weight [9, 22]: 2.9 ± 0.31 g
Average weight(g)-after administration [9, 23]: 22.1 g
Tumor weight [9, 23]: 3.03 ± 0.29 g
Average weight(g)-after administration [9, 24]: 22.0 g
Tumor weight [9, 24]: 3.02 ± 0.41 g
Average weight(g)-after administration [9, 25]: 22.1 g
Inhibition rate (%) [9, 25]: 1.0%
Tumor weight [9, 25]: 3.0 ± 0.31 g
Average weight (g)-after administration [9, 26]: 22.1 g
Tumor weight [9, 26]: 3.02 ± 0.29 g
Average weight (g)-after administration [9, 27]: 21.0 g
Tumor weight [9, 27]: 3.01 ± 0.41 g
Average weight (g)-after administration [9, 28]: 20.1 g
Inhibition rate (%) [9, 28]: 1.0%
Tumor weight [9, 28]: 3.0 ± 0.31 g
inhibitory effect against mouse grafted liver cancer H22 (in words) [9]: little inhibitory effect
IC50 ([10]; Influenza A virus, CPE in MDCK cells): 47.7 µg/mL
SI, influenza A virus ([10]; SI = TC50/IC50): 20.96

CC(C)C1CC23OC1(O)CC(=CN1CCNCC1)C2CCC3C (stereo not shown) [Compound 8, Curcumol piperazine hydrochloride]
Inhibition rate (%) [6, 11]: 35.6%
Tumor weight [6, 11]: 2.26 ± 0.33 g
Inhibition rate (%) [6, 12]: 54.4%
Tumor weight [6, 12]: 1.60 ± 0.39 g
Inhibition rate (%) [6, 13]: 67.2%
Tumor weight [6, 13]: 1.15 ± 0.36 g
Inhibition rate (%) [6, 14]: 38.8%
Tumor weight [6, 14]: 2.08 ± 0.33 g
Inhibition rate (%) [6, 15]: 55.6%
Tumor weight [6, 15]: 1.51 ± 0.39 g
Inhibition rate (%) [6, 16]: 64.7%
Tumor weight [6, 16]: 1.20 ± 0.36 g
Inhibition rate (%) [6, 17]: 40.1%
Tumor weight [6, 17]: 2.14 ± 0.33 g
Inhibition rate (%) [6, 18]: 54.4%
Tumor weight [6, 18]: 1.65 ± 0.39 g
Inhibition rate (%) [6, 19]: 65.5%
Tumor weight [6, 19]: 1.25 ± 0.36 g
inhibitory effect against mouse grafted uterine cervix cancer U14 (in words) [6]: good inhibitory effect
inhibition rate against mouse grafted uterine cervix cancer U14 ([6]; concentration above 40 mg/kg): above 60%
Average weight (g)-after administration ([6]; mouse, in vivo, 10 mg/kg): 21.5 g
Average weight (g)-after administration ([6]; mouse, in vivo, 20 mg/kg): 21.9 g
Average weight(g)-after administration ([6]; mouse, in vivo, 20 mg/kg): 20.9 g
Average weight (g)-after administration ([6]; mouse, in vivo, 40 mg/kg): 21.3 g
Tumor weight [9, 20]: 3.02 ± 0.33 g
Inhibition rate (%) [9, 21]: 4.0%
Tumor weight [9, 21]: 2.9 ± 0.39 g
Inhibition rate (%) [9, 22]: 37.1%
Tumor weight [9, 22]: 1.9 ± 0.36 g
Tumor weight [9, 23]: 3.10 ± 0.33 g
Inhibition rate (%) [9, 24]: 4.0%
Tumor weight [9, 24]: 2.9 ± 0.39 g
Inhibition rate (%) [9, 25]: 36.1%
Tumor weight [9, 25]: 1.93 ± 0.36 g
Inhibition rate (%) [9, 26]: 2.3%
Tumor weight [9, 26]: 2.95 ± 0.33 g
Inhibition rate (%) [9, 27]: 7.3%
Tumor weight [9, 27]: 2.8 ± 0.39 g
Inhibition rate (%) [9, 28]: 33.4%
Tumor weight [9, 28]: 2.01 ± 0.36 g
Average weight (g)-after administration ([9]; mouse, in vivo, 10 mg/kg): 20.3 g
Average weight(g)-after administration ([9]; mouse, in vivo, 10 mg/kg): 22.3 g
Average weight (g)-after administration ([9]; mouse, in vivo, 20 mg/kg): 20.9 g
Average weight(g)-after administration ([9]; mouse, in vivo, 20 mg/kg): 21.9 g
Average weight (g)-after administration ([9]; mouse, in vivo, 40 mg/kg): 21.9 g
Average weight(g)-after administration ([9]; mouse, in vivo, 40 mg/kg): 21.4 g
Average weight(g)-after administration ([9]; mouse, in vivo, iv, 10 mg/kg): 22.3 g
Average weight(g)-after administration ([9]; mouse, in vivo, iv, 20 mg/kg): 21.9 g
Average weight(g)-after administration ([9]; mouse, in vivo, iv, 40 mg/kg): 22.4 g
inhibitory effect against mouse grafted liver cancer H22 (in words) [9]: some inhibitory effect only when the concentration reached 40 mg/kg
